In one data set the test system is SALL4. Nature of the data set: SALL4 degradation by immunoblotting in Tera-1 cells. The class given is cell-based, human. To be noted: 0.000128-10 μM, 4 hours, immunoblot, FIG. 4. From the text:
It has been reported that a cereblon (CRBN)-binding therapeutic such as a thalidomide-based compound can cause severe congenital abnormalities such as forelimb shortening or brachydactyly, which are closely associated with the decomposition of SALL4.
To this end, the Tera-1 cell line (HTB-105), which is a human embryonic carcinoma cell line, was purchased from the American Type Culture Collection (ATCC, Manassas, VA, USA) and used, and then cultured using a DMEM medium (Corning, MD, USA) supplemented with 10% fetal bovine serum (Corning, MD, USA), 100 U/mL of penicillin (Corning, MD, USA), and 100 100 μg/mL streptomycin (Corning, MD, USA) at 37° C. in a 5% CO2 incubator.
The cells were disrupted by adding a RIPA buffer containing a protease inhibitor cocktail (Thermo Fisher Scientific), and centrifuged at 14,000 rpm for 15 minutes at 4° C. to obtain a cell extract. Equal amounts of the cell extract were loaded, and proteins were separated by SDS-PAGE and then transferred to a PVDF membrane. The protein-transferred membrane was blocked using skim milk, incubated with a primary antibody for 3 hours at room temperature, and then incubated with an HRP-conjugated secondary antibody for 1 hour at room temperature. The resulting product was washed with TBS-T three times between steps. […]

For a further data set, the system named is iNOS and COX-2. The experiment in a line: iNOS and COX-2 immunoblotting in LPS-stimulated BV-2 cells. The class given is cell-based, mouse. To be noted: BV-2, 30, 10, or 3.33 μM, LPS 1 μg/mL 24 hours, FIG. 6C. The protocol:
To further confirm the oxidative stress suppression effect, the content of nitrite released due to an inflammatory response and the expression levels of iNOS, which is an enzyme that produces nitric oxide, and COX-2, which is cyclooxygenase-2, were determined in mouse microglial cells (BV-2, ATCC, Manassas, VA, USA).
To determine the content of nitrite and the protein expression levels of iNOS and COX-2, BV-2 was seeded in a 12-well plate (Corning, MD, USA) at 1.5×10^5 cells/well, and cultured using a DMEM medium (Corning, MD, USA) containing 10% fetal bovine serum (Corning, MD, USA) and 100 U/mL of penicillin/streptomycin (Corning, MD, USA) at 37° C. in a 5% CO2 incubator for one day for stabilization. […] 1 μg/mL of LPS (Sigma, USA) was added to all experimental groups excluding the non-inflammation-induced group and allowed to react at 37° C. in a 5% CO2 incubator for 24 hours.
The cells from which the cell culture medium was removed were disrupted by adding a RIPA buffer containing a protease inhibitor cocktail (Thermo Fisher Scientific), and centrifuged at 14,000 rpm for 15 minutes at 4° C. to obtain a cell extract. Equal amounts of the cell extract were loaded, and proteins were separated through SDS-PAGE and then transferred to a PVDF membrane. […]
(Immunoblotting shows a protein as a band on a membrane.)

Consider `Nc1cccc2c1C(=S)N(C1CCC(=O)NC1=O)C2=O` (centres unmarked) [3-MP, 3-thiopomalidomide], for which the “decomposition of SALL4” value in the data set with SALL4 is recorded as “less decomposition of SALL4 than pomalidomide”. Moreover, in the data set on iNOS and COX-2, the “expression of oxidative stress-associated proteins (iNOS and COX-2)” value is listed as “effectively reduced”.
